“And” between values parts separate entries of the source, which are not always exact repeats. Identical values can stand only once. Inconclusive results and toxic doses are left out.
Test system: BDF1 mice, M5076 sarcoma ip, median survival T/C
Test: NCI In Vivo Anticancer Drug Screen. Data for tumor model Sarcoma M5076 (intraperitoneal) in B6D2F1 (BDF1) mice
Conditions: endpoint: median survival time, higher = longer survival
Description: The antitumor activity of compounds was measured in mice bearing transplantable tumors. Survival or tumor size were measured and the results are expressed as the measurement made in the treated group (T) divided by the measurement made in the vehicle treated control group (C). The tumor model used in this assay is Sarcoma M5076 (intraperitoneal) in B6D2F1 (BDF1) mice

[1] = dose: 0.5 mg/kg/injection, schedule: Q01DX009 (ip), vehicle: saline + alcohol
[2] = dose: 1.0 mg/kg/injection, schedule: Q01DX009 (ip), vehicle: saline + alcohol
[3] = dose: 50.0 mg/kg/injection, schedule: Q04DX004 (ip), vehicle: saline with Tween-80
[4] = dose: 100.0 mg/kg/injection, schedule: Q04DX004 (ip), vehicle: saline with Tween-80
[5] = dose: 200.0 mg/kg/injection, schedule: Q04DX004 (ip), vehicle: saline with Tween-80

COC1=C(C)C(=O)C2=C(C1=O)C(CO)N1C(C#N)C3CC4C(C1C2N1CCOC41)N3C (configuration not stated)
T/C (dose: 0.06 mg/kg/injection, schedule: Q01DX009 (ip), vehicle: saline + alcohol): 116 % of control
T/C (dose: 0.13 mg/kg/injection, schedule: Q01DX009 (ip), vehicle: saline + alcohol): 95 % of control
T/C (dose: 0.25 mg/kg/injection, schedule: Q01DX009 (ip), vehicle: saline + alcohol): 98 % of control
T/C [1]: 103 % of control
T/C [2]: 122 % of control
T/C (dose: 62.5 micrograms/kg/injection, schedule: Q01DX009 (ip), vehicle: acid diluted with saline): 107 % of control
T/C (dose: 125.0 micrograms/kg/injection, schedule: Q01DX009 (ip), vehicle: acid diluted with saline): 96 % of control
T/C (dose: 250.0 micrograms/kg/injection, schedule: Q01DX009 (ip), vehicle: acid diluted with saline): 96 % of control
T/C (dose: 500.0 micrograms/kg/injection, schedule: Q01DX009 (ip), vehicle: acid diluted with saline): 109 % of control

C=C1C(=O)O[C@H]2C1[C@H](OC(=O)/C(C)=C\C)CC(=C)[C@@H]1C(=O)[C@H]3O[C@@]3(C)[C@@]12O (some centres not stated)
T/C [1]: 107 % of control
T/C [2]: 102 % of control
T/C (dose: 2.0 mg/kg/injection, schedule: Q01DX009 (ip), vehicle: saline + alcohol): 104 % of control
T/C (dose: 5.0 mg/kg/injection, schedule: Q01DX009 (ip), vehicle: saline + alcohol): 113 % of control

Nc1n[nH]c2ccccc12
T/C (dose: 50.0 mg/kg/injection, schedule: Q04DX004 (ip), vehicle: acid diluted with saline): 112 % of control
T/C (dose: 100.0 mg/kg/injection, schedule: Q04DX004 (ip), vehicle: acid diluted with saline): 113 % of control
T/C (dose: 200.0 mg/kg/injection, schedule: Q04DX004 (ip), vehicle: acid diluted with saline): 112 % of control

O=C(NC(Cc1ccc(I)cc1)C(=O)O)c1cccc(Br)c1 (configuration not stated)
T/C (dose: 100.0 mg/kg/injection, schedule: Q04DX004 (ip), vehicle: Klucel (hydroxypropylcellulose) (HPC)): 116 % of control
T/C (dose: 200.0 mg/kg/injection, schedule: Q04DX004 (ip), vehicle: Klucel (hydroxypropylcellulose) (HPC)): 114 % of control
T/C (dose: 400.0 mg/kg/injection, schedule: Q04DX004 (ip), vehicle: Klucel (hydroxypropylcellulose) (HPC)): 99 % of control

COc1cc(C)c(C2NC(=O)c3ccccc3N2)cc1C (configuration not stated)
T/C (dose: 12.5 mg/kg/injection, schedule: Q04DX004 (ip), vehicle: saline with Tween-80): 102 % of control
T/C (dose: 25.0 mg/kg/injection, schedule: Q04DX004 (ip), vehicle: saline with Tween-80): 102 % of control
T/C [3]: 90 % of control
T/C [4]: 105 % of control
T/C [5]: 124 % of control

Cc1c2ccncc2c(C)c2c1[nH]c1ccccc12
T/C (dose: 40.0 mg/kg/injection, schedule: Q04DX004 (ip), vehicle: saline with Tween-80): 170 % of control
T/C (dose: 80.0 mg/kg/injection, schedule: Q04DX004 (ip), vehicle: saline with Tween-80): 191 % of control

COC(=O)Nc1ccc(Cc2ccc(NC(=O)OC)cc2)cc1
T/C [3]: 89 % of control
T/C [4]: 103 % of control
T/C [5]: 118 % of control
T/C (dose: 400.0 mg/kg/injection, schedule: Q04DX004 (ip), vehicle: saline with Tween-80): 185 % of control

Cc1nc(C(Cl)(Cl)Cl)[nH]c(=O)c1SCCO
T/C (dose: 50.0 mg/kg/injection, schedule: Q04DX004 (ip), vehicle: distilled water + alcohol): 101 % of control
T/C (dose: 100.0 mg/kg/injection, schedule: Q04DX004 (ip), vehicle: distilled water + alcohol): 93 % of control
T/C (dose: 200.0 mg/kg/injection, schedule: Q04DX004 (ip), vehicle: distilled water + alcohol): 94 % of control
T/C (dose: 400.0 mg/kg/injection, schedule: Q04DX004 (ip), vehicle: distilled water + alcohol): 96 % of control

O=C(O)c1ccc(C(=O)O)c(C(=O)O)c1.[NH-]C1CCCCC1[NH-].[Pt+2]
T/C (dose: 3.11 mg/kg/injection, schedule: Q04DX005 (ip), vehicle: sodium bicarbonate): 206 % of control
T/C (dose: 5.18 mg/kg/injection, schedule: Q04DX005 (ip), vehicle: sodium bicarbonate): 181 % of control
T/C (dose: 8.64 mg/kg/injection, schedule: Q04DX005 (ip), vehicle: sodium bicarbonate): 216 % of control
T/C (dose: 14.4 mg/kg/injection, schedule: Q04DX005 (ip), vehicle: sodium bicarbonate): 245 % of control
T/C (dose: 24.0 mg/kg/injection, schedule: Q04DX005 (ip), vehicle: sodium bicarbonate): 381 % of control
T/C (dose: 40.0 mg/kg/injection, schedule: Q04DX005 (ip), vehicle: sodium bicarbonate): 87 % of control

O=P1(N(CCCl)CCCl)NCCCO1 (configuration not stated)
T/C (dose: 10.0 mg/kg/injection, schedule: Q04DX005 (ip), vehicle: saline): 180 % of control

C=C1C(O)C2OC3(CCC(/C=C/C(C)C4CC5(C)SC5C5(OC(CC(C)(O)C(=O)O)CCC5O)O4)O3)CCC2OC1C(O)CC(C)C1OC2(CCCCO2)CCC1C (configuration not stated)
T/C (dose: 0.5 micrograms/kg/injection, schedule: Q01DX009 (ip), vehicle: saline + alcohol): 108 % of control
T/C (dose: 1.0 micrograms/kg/injection, schedule: Q01DX009 (ip), vehicle: saline + alcohol): 111 % of control
T/C (dose: 2.0 micrograms/kg/injection, schedule: Q01DX009 (ip), vehicle: saline + alcohol): 120 % of control
T/C (dose: 2.5 micrograms/kg/injection, schedule: Q01DX009 (ip), vehicle: saline + alcohol): 155 % of control

COC(=O)NC1C(C)OC(OC2C/C=C(/C)C3C=CC4C(OC5CC(OC6CCC(OC7CC(O)C(OC8CCC(O)C(C)O8)C(C)O7)C(C)O6)C(OC(C)=O)C(C)O5)C(C)CC(C)C4C3(C)/C(O)=C3/C(=O)OC4(CC(C=O)=CC(O)C4/C=C\2C)C3=O)CC1(C)[N+](=O)[O-] (configuration not stated)
T/C (dose: 2.5 mg/kg/injection, schedule: Q04DX004 (ip), vehicle: water): 107 % of control
T/C (dose: 5.0 mg/kg/injection, schedule: Q04DX004 (ip), vehicle: water): 96 % of control
T/C (dose: 10.0 mg/kg/injection, schedule: Q04DX004 (ip), vehicle: water): 103 % of control

N[C@H](C(=O)O)[C@@H]1CC(Cl)=NO1
T/C (dose: 15.0 mg/kg/injection, schedule: Q04DX005 (ip), vehicle: saline): 113 % of control
T/C (dose: 60.0 mg/kg/injection, schedule: Q04DX005 (ip), vehicle: saline): 160 % of control
T/C (dose: 120.0 mg/kg/injection, schedule: Q04DX005 (ip), vehicle: saline): 195 % of control and 160 % of control

CC(=O)OCC1OC(n2ncc(=O)[nH]c2=O)C(OC(C)=O)C1OC(C)=O (configuration not stated)
T/C (dose: 150.0 mg/kg/injection, schedule: Q04DX004 (ip), vehicle: Klucel (hydroxypropylcellulose) (HPC)): 102 % of control
T/C (dose: 300.0 mg/kg/injection, schedule: Q04DX004 (ip), vehicle: Klucel (hydroxypropylcellulose) (HPC)): 102 % of control
T/C (dose: 600.0 mg/kg/injection, schedule: Q04DX004 (ip), vehicle: Klucel (hydroxypropylcellulose) (HPC)): 102 % of control
T/C (dose: 1200.0 mg/kg/injection, schedule: Q04DX004 (ip), vehicle: Klucel (hydroxypropylcellulose) (HPC)): 87 % of control

CN(Cc1cnc2nc(N)nc(N)c2n1)c1ccc(C(=O)N[C@@H](CCC(=O)O)C(=O)O)cc1
T/C (dose: 1.7 mg/kg/injection, schedule: Q01DX009 (ip), vehicle: sodium bicarbonate): 93 % of control
T/C (dose: 2.0 mg/kg/injection, schedule: Q04DX005 (ip), vehicle: sodium bicarbonate): 108 % of control
T/C (dose: 2.6 mg/kg/injection, schedule: Q01DX009 (ip), vehicle: sodium bicarbonate): 101 % of control
T/C (dose: 4.0 mg/kg/injection, schedule: Q04DX005 (ip), vehicle: sodium bicarbonate): 101 % of control
T/C (dose: 8.0 mg/kg/injection, schedule: Q04DX005 (ip), vehicle: sodium bicarbonate): 112 % of control

Oc1cc(O)c(-c2c(O)cc(O)cc2O)c(O)c1 (tested in a mixture with another compound)
T/C (dose: 1.56 mg/kg/injection, schedule: Q01DX009 (ip), vehicle: saline): 118 % of control
T/C (dose: 3.12 mg/kg/injection, schedule: Q01DX009 (ip), vehicle: saline): 122 % of control
T/C (dose: 3.75 mg/kg/injection, schedule: Q01DX009 (ip), vehicle: saline): 119 % of control
T/C (dose: 6.25 mg/kg/injection, schedule: Q01DX009 (ip), vehicle: saline): 118 % of control
T/C (dose: 12.5 mg/kg/injection, schedule: Q01DX009 (ip), vehicle: saline): 123 % of control
T/C (dose: 15.0 mg/kg/injection, schedule: Q01DX009 (ip), vehicle: saline): 123 % of control

CC(=O)N(C)c1ccc(Nc2cc(C)[nH]c3ccc4ncnc4c23)cc1
T/C (dose: 5.0 mg/kg/injection, schedule: Q04DX004 (ip), vehicle: saline): 96 % of control

— PubChem BioAssay AID286 (DTP/NCI, 2004)
